Test results reported in patent US8476233B2, “Methods for treatment for ulcerative colitis in mammals” (Therapeutic Research, LLC, priority 2003, dated 2013).
Where two headings read alike, the source gives them in different places.

Assays:
[1] = system: glutathione peroxidase (GPx); conditions: cited from earlier work
colonic mucosa = conditions: rats, 3% solution, cited from earlier work
ulcerative colitis = test: Example 3: patient's response to earlier therapies; assay type: in vivo, human; conditions: patient history before the treatment of the invention
Source text: The recurrences occurred every 3-5 months.

[2] = system: mitochondrial electron transport chain (whole chain respiration); conditions: same study as cigarette tar; cited from earlier work

Structure (SMILES): N[C@@H](CCS)C(=O)O [Homocysteine, homocysteine]
- inhibition of glutathione peroxidase (GPx) activity ([1]; Outinen et al., 1999): 10 fold
- concentration of free homocysteine at which inhibition of GPx occurs ([1]; physiologic concentration, Chen, 2000): 9 µmol/L

Structure (SMILES): OO [hydrogen peroxide]
- extent of mucosal inflammation above the anus (colonic mucosa; 5 hours after injection): 5 cm
- extent of mucosal inflammation above the anus (colonic mucosa; by one week): 9 cm
- colonic outcome of rectal injection (colonic mucosa; rectal injection): acute and chronic ulcerative colitis

Structure (SMILES): C[C@]12C=CC(=O)C=C1CC[C@@H]1[C@@H]2C(=O)C[C@@]2(C)[C@H]1CC[C@]2(O)C(=O)CO [prednisone]
- clinical response of ulcerative colitis episodes to earlier therapy (ulcerative colitis): improved for a few months

Structure (SMILES): CN1CCCC1c1cccnc1 (stereo not shown) [nicotine]
- effect on electron transport activity [2]: no effect
